Experimental findings from US20010014742A1, “Water-soluble prodrugs of azole compounds” (priority 1999, published 2001) are described below.

Structures are written as SMILES. ≈ marks a conversion by molar mass, not a printed value.

The nature of the data set: aqueous solubility. Format: physicochemical. The note with it: water at pH 6.8.

For `C[C@@H](c1nc(-c2ccc(C#N)cc2)cs1)C(O)(Cn1cncn1)c1ccc(F)cc1F` (stereo partly drawn) [the above triazole compound, (2R,3R)-3-[4-(4-cyanophenyl)thiazol-2-yl]-2-(2,4-difluorophenyl)-1-(1H,1,2,4-triazol-1-yl)-butan-2-ol], the concentration in solution (solubility) came to 0.6 µg/mL (≈ 1.37 µM).
